Assay results as given in the supplement of paper PMC10307832.

How the values were obtained:
Test in all cases: relative viability (nuclei count vs DMSO), 5 days (fraction); higher = more cells survive
R406 + Bortezomib = compound: COc1cc(Nc2ncc(F)c(Nc3ccc4c(n3)NC(=O)C(C)(C)O4)n2)cc(OC)c1OC [R406] + CC(C)C[C@H](NC(=O)[C@H](Cc1ccccc1)NC(=O)c1cnccn1)B(O)O [Bortezomib] (partner 0.002 µM)
In short: (§1)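 After 5 days of treatment, lung cancer cells in 1536-well plates were fixed and stained in a single step (final 0.05% Triton X-100, 1% formaldehyde, 1 ug/ml Hoechst) and their nuclei counted on 4× images. Treatment had been applied by pin tool the day after seeding as one drug alone or as a fixed anchor-drug dose with five library-drug doses (not always all listed) in √10 steps. Relative viability is the nuclei count of treated wells divided by that of vehicle wells, and values are medians of duplicate plates.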

Daporinad + Bortezomib = compound: O=C(/C=C/c1cccnc1)NCCCCC1CCN(C(=O)c2ccccc2)CC1 [Daporinad] + CC(C)C[C@H](NC(=O)[C@H](Cc1ccccc1)NC(=O)c1cnccn1)B(O)O [Bortezomib] (partner 0.002 µM)
In short: as §1

R406 + Crizotinib = compound: COc1cc(Nc2ncc(F)c(Nc3ccc4c(n3)NC(=O)C(C)(C)O4)n2)cc(OC)c1OC [R406] + C[C@@H](Oc1cc(-c2cnn(C3CCNCC3)c2)cnc1N)c1c(Cl)ccc(F)c1Cl [Crizotinib] (partner 1 µM)
In short: as §1

Daporinad + AZD7762 = compound: O=C(/C=C/c1cccnc1)NCCCCC1CCN(C(=O)c2ccccc2)CC1 [Daporinad] + NC(=O)Nc1cc(-c2cccc(F)c2)sc1C(=O)N[C@H]1CCCNC1 [AZD7762] (partner 0.2 µM)
In short: as §1

Row | Cell Line | relative viability (R406 + Bortezomib; first compound 0.08 µM) | relative viability (R406 + Bortezomib; first compound 0.253 µM) | relative viability (R406 + Bortezomib; first compound 0.8 µM) | relative viability (R406 + Bortezomib; first compound 2.53 µM) | relative viability (R406 + Bortezomib; first compound 8 µM) | relative viability (Daporinad + Bortezomib; first compound 0.0005 µM) | relative viability (Daporinad + Bortezomib; first compound 0.001581 µM) | relative viability (Daporinad + Bortezomib; first compound 0.005 µM) | relative viability (Daporinad + Bortezomib; first compound 0.01581 µM) | relative viability (R406 + Crizotinib; first compound 0.08 µM) | relative viability (R406 + Crizotinib; first compound 0.253 µM) | relative viability (R406 + Crizotinib; first compound 0.8 µM) | relative viability (R406 + Crizotinib; first compound 2.53 µM) | relative viability (R406 + Crizotinib; first compound 8 µM) | relative viability (Daporinad + AZD7762; first compound 0.0005 µM) | relative viability (Daporinad + AZD7762; first compound 0.001581 µM) | relative viability (Daporinad + AZD7762; first compound 0.005 µM) | relative viability (Daporinad + AZD7762; first compound 0.01581 µM)
1 | LCLC-103H | 0.972 | 1.29 | 1.08 | 0.781 | 0.9 | 1.11 | 1 | 1.07 | 1.04 | 1.07 | 1.24 | 0.954 | 0.971 | 0.828 | 0.829 | 0.829 | 0.773 | 0.851
2 | LOU-NH91 | 0.427 | 0.4 | 0.469 | 0.496 | 0.471 | 0.532 | 0.465 | 0.559 | 0.559 | 0.745 | 0.728 | 0.756 | 0.504 | 0.57 | 0.761 | 0.803 | 0.905 | 0.816
3 | LU99A | 1.07 | 0.968 | 1.26 |  | 0.512 | 1.11 | 1.17 | 1.36 | 1.44 | 0.474 | 0.553 | 0.607 |  | 0.218 | 0.31 | 0.281 | 0.377 | 0.307
4 | LXF-289 | 0.913 | 0.953 | 1.01 | 1.04 | 0.483 | 0.965 | 1.08 | 1.05 | 1.07 | 0.739 | 0.918 | 0.833 | 0.832 | 0.259 | 1.01 | 1.14 | 1.19 | 1.19
5 | NCI-H23 | 0.953 | 1.45 | 1.35 | 0.906 | 0.278 | 1.18 | 0.919 | 0.888 | 0.427 | 0.458 | 0.607 | 0.571 | 0.439 | 0.285 | 0.273 | 0.181 | 0.274 | 0.203
6 | NCI-H322M | 1.19 | 0.994 | 1.19 | 0.534 | 0.803 | 1.24 | 1.37 | 1.04 | 0.625 | 0.811 | 1.06 | 0.978 | 0.611 | 0.438 | 0.579 | 0.592 | 0.54 | 0.456
7 | NCI-H441 |  | 0.383 | 0.713 |  | 0.331 |  | 0.476 | 0.486 | 0.443 | 0.72 | 0.975 | 0.846 | 0.599 | 0.461 | 1.34 | 1.34 | 1.52 | 1.25
8 | NCI-H460 | 0.96 | 1.33 | 1.58 |  | 0.486 | 1.1 | 1.17 | 1.05 | 1.05 | 0.829 | 1.09 | 1.16 |  | 0.441 | 0.646 | 0.587 | 0.64 | 0.629
9 | NCI-H596 | 1.1 | 1.28 | 0.758 | 0.984 | 0.475 | 1.05 | 1.02 | 0.998 | 0.788 | 0.837 | 1.1 | 1.09 | 0.796 | 0.245 | 0.867 | 1.09 | 1.27 | 1.03
10 | NCI-H647 | 0.89 | 1.02 | 1.59 | 0.0846 | 0.188 | 1.03 | 1.04 | 1.14 | 1.01 | 0.987 | 1.35 | 1.26 | 0.573 | 0.0968 | 0.428 | 0.749 | 0.573 | 0.514
11 | NCI-H650 | 0.712 | 0.852 | 0.977 | 0.625 | 0.389 | 0.622 | 0.817 | 0.669 | 0.833 | 0.809 | 0.848 | 0.713 | 0.59 | 0.532 | 0.931 | 0.775 | 1.32 | 1.06
12 | NCI-H727 | 0.803 | 0.965 | 1.1 | 0.278 | 0.747 | 0.813 | 0.798 | 0.838 | 0.858 | 0.866 | 0.852 | 0.898 | 0.714 | 0.301 | 0.757 | 0.466 | 0.513 | 0.439
13 | NCI-H838 | 0.709 | 1.46 | 1.01 | 0.11 | 0.153 | 0.795 | 1.2 | 0.828 | 0.443 | 0.806 | 0.945 | 0.949 | 0.612 | 0.516 | 1.02 | 1.02 | 0.894 | 0.837
14 | NCI-H1355 | 1.23 | 1.29 | 1.44 | 1.02 | 0.957 | 1.16 | 1.2 | 1.35 | 1.07 | 1.09 | 1.14 | 1.25 | 0.909 | 0.687 | 0.768 | 0.799 | 0.869 | 0.675
15 | NCI-H1437 | 0.392 | 0.768 | 0.675 | 0.259 | 0.226 | 0.414 | 0.629 | 0.561 | 0.554 | 0.944 | 1.13 | 0.971 | 0.864 | 0.716 | 1.12 | 1.16 | 1.14 | 1.09
16 | NCI-H1651 | 0.921 | 1.06 | 0.9 | 0.935 | 0.948 | 0.953 | 0.952 | 1.01 | 0.788 | 0.869 | 0.914 | 0.853 | 0.815 | 0.929 | 0.486 | 0.475 | 0.554 | 0.477
17 | NCI-H1666 | 0.803 | 1.03 | 0.853 | 0.336 | 0.617 | 0.846 | 0.93 | 0.9 | 0.742 | 0.92 | 1.3 | 0.973 | 0.849 | 0.461 | 0.773 | 0.874 | 0.941 | 0.851
